Laboratory results: article PMC6471062, “Suppression of the Ubiquitin Pathway by Small Molecule Binding to Ubiquitin Enhances Doxorubicin Sensitivity of the Cancer Cells” (Molecules, 2019)

Legend:
USP4 = experiment: TOP flash luciferase reporter assay of β-catenin with USP4; assay type: cell-based; details: HEK293T, CR 0–30 μM, 24 h
Method: Luciferase reporter assays were performed as described previously. Briefly, HEK293T cells were seeded in 12-well plates at 1 × 10^5 cells per well and incubated for 24 h before being transfected with either SRT-USP4 or Myc-β-catenin expression plasmids, along with the T cell factor (TCF) reporter plasmid (TOP flash) driving the expression of the luciferase gene. Equal amounts of total DNA in transfections were maintained by adding the control plasmids in each transfection experiment. 24 h post-transfection, cells were treated with CR (0–30 µM) for 24 h. After that, cells were harvested for luciferase reporter assays. Luciferase activity was measured according to the manufacturer’s instructions (Promega, Madison, WI, USA). page 5: (a) (b) Figure S5. CR inhibits USP4 deubiquitinase activity on its substrate, ß-catenin on the TOP flash reporter activity. (a) Cells were co-transfected with either SRT-USP4 or Myc‐β‐catenin expression plasmids, and TOP flash reporter plasmid containing a β‐catenin‐induced TCF reporter. 24-h post-transfection, CR was added at increasing concentrations (0 – 30 µM) and the cells were further cultured for 24 h. A top-flash activity assay of ß-catenin was conducted and (b) Western blot analysis with the indicated antibody was performed in parallel. […]

HCT116 cells = experiment: Luminogenic caspase activity assay (Caspase Glo 3/7), HCT116; assay type: cell-based; details: 10 µM CR or 5 µM NSC697923 with Dox
Method: Figure 7 CR enhances Dox sensitivity of cancer cells. (a,b) Enhancement of Dox-induced apoptosis of cancer cells by CR treatment. Dox–induced apoptosis of H1299 (a) and HCT116 (b) was quantified by colorimetric cell viability after treating 10 µM CR for 12 h followed by 12h treatment of Dox (0.0–5.0 µM). […] Caspase activity was quantified by luminogenic caspase activity assay. […] All error bars represent the standard deviation from at least four independent experiments. Statistical significance was calculated by the Student’s t-test (** p < 0.01, *** p < 0.001).
Cell viability assays were performed as described previously. For the caspase assays, the media were removed, and cells were lysed in 200 µL lysis buffer containing 50 µL Caspase Glo 3/7 solution and incubated for 15 min. Results were observed by measuring the luminescence signal using KOMM-Nr (Berthold Technologies, Bad Wildbad, Germany) and normalized with the total protein concentration measured by the Bradford assay. […]
Figure S8. NSC697923 enhances Dox sensitivity of cancer cells. (a, b) Effect of NSC697923 to cancer cells’ viability in Dox treatment . Dox–induced cell death of H1299 ( a) and HCT116 ( b) was quantified by colorimetric cell viability assay after treating 5 µM NSC697923 for 12 h followed by 12h treatment of Dox (0.0 […]
NSC697923. Caspase activity was quantified by luminogenic caspase activity assay. […]

## Nc1c(/N=N/c2ccc(-c3ccc(/N=N/c4cc(S(=O)(=O)O)c5ccccc5c4N)cc3)cc2)cc(S(=O)(=O)O)c2ccccc12 [CR, Congo red]
USP4
  Effect on USP4-enhanced β-catenin transcriptional activity (TOP flash): this enhancement was antagonized by CR treatment
HCT116 cells
  Effect on caspase activity of Dox-treated HCT116 cells: Enhanced caspase activity
